Results taken from ChEMBL document CHEMBL5678816, “A Next-Generation TRK Kinase Inhibitor Overcomes Acquired Resistance to Prior TRK Kinase Inhibition in Patients with TRK Fusion-Positive Solid Tumors” (Cancer Discov, 2017).
The source made the active and inactive calls. The rule behind the calls is not given here.

Columns and labels:
[1] = biological target: Tyrosine-protein kinase Yes (Homo sapiens) (UniProt P07947); experiment: Inhibition of Yes (unknown origin) at 1 uM in presence of ATP relative to control; values are per cent of control
BHT-101 = experiment: Inhibition of cell proliferation in human BHT-101 cells upto 10 umol/L incubated for 72 hrs by DAPI staining based analysis; type: functional; conditions: dose <= 10.0 µmol/L
SNB-19 = experiment: Inhibition of cell proliferation in human SNB-19 cells upto 10 umol/L incubated for 72 hrs by DAPI staining based analysis; type: functional; conditions: dose <= 10.0 µmol/L
[2] = biological target: Misshapen-like kinase 1 (Homo sapiens) (UniProt Q8N4C8); experiment: Inhibition of MINK (unknown origin) at 1 uM in presence of ATP relative to control; values are per cent of control
SCC-25 = experiment: Inhibition of cell proliferation in human SCC-25 cells upto 10 umol/L incubated for 72 hrs by DAPI staining based analysis; type: functional; conditions: dose <= 10.0 µmol/L
Homo sapiens = species on record: Homo sapiens; experiment: Inhibition of TEC Activated (unknown origin) at 1 uM in presence of ATP relative to control; values are per cent of control
NCI-H661 = experiment: Inhibition of cell proliferation in human NCI-H661 cells upto 10 umol/L incubated for 72 hrs by DAPI staining based analysis; type: functional; conditions: dose <= 10.0 µmol/L
CAMA-1 = experiment: Inhibition of cell proliferation in human CAMA-1 cells upto 10 umol/L incubated for 72 hrs by DAPI staining based analysis; type: functional; conditions: dose <= 10.0 µmol/L
[3] = biological target: Ephrin type-A receptor 7 (Homo sapiens) (UniProt Q15375); experiment: Inhibition of EphA7 (unknown origin) at 1 uM in presence of ATP relative to control; values are per cent of control
[4] = biological target: Proto-oncogene tyrosine-protein kinase receptor Ret (Homo sapiens) (UniProt P07949); experiment: Inhibition of Ret (unknown origin) at 1 uM in presence of ATP relative to control; values are per cent of control
5637 = experiment: Inhibition of cell proliferation in human 5637 cells upto 10 umol/L incubated for 72 hrs by DAPI staining based analysis; type: functional; conditions: dose <= 10.0 µmol/L
[5] = biological target: BDNF/NT-3 growth factors receptor (Homo sapiens) (UniProt Q16620); experiment: Inhibition of TrkB (unknown origin) at 1 uM in presence of ATP relative to control; values are per cent of control
[6] = biological target: CDK7/Cyclin H/MNAT1 (Homo sapiens) (UniProt P51946+P50613+P51948); experiment: Inhibition of CDK7/cyclinH/MAT1 (unknown origin) at 1 uM in presence of ATP relative to control; values are per cent of control
KM12 = experiment: Antitumor activity against human KM12 cells harboring TPM3-TRKA fusion protein xenografted in nu/nu NCr mouse assessed as inhibition of tumor growth at 30 to 300 mg/kg, po administered twice daily for 11 days; type: functional, organism-based; conditions: dose 30-300 mg/kg, time 11.0 day
T-24 = experiment: Inhibition of cell proliferation in human T24 cells upto 10 umol/L incubated for 72 hrs by DAPI staining based analysis; type: functional; conditions: dose <= 10.0 µmol/L
[7] = biological target: Calcium/calmodulin-dependent protein kinase type 1D (Homo sapiens) (UniProt Q8IU85); experiment: Inhibition of CAMK1d (unknown origin) at 1 uM in presence of ATP relative to control; values are per cent of control
[8] = biological target: Serine/threonine-protein kinase 10 (Homo sapiens) (UniProt O94804); experiment: Inhibition of LOK (unknown origin) at 1 uM in presence of ATP relative to control; values are per cent of control
[9] = biological target: FKBP12A/mTOR (Homo sapiens) (UniProt P62942+P42345); experiment: Inhibition of mTOR/FKBP12 (unknown origin) at 1 uM in presence of ATP relative to control; values are per cent of control
NIH3T3 = experiment: In vivo inhibition of […] in nu/nu NCr mouse implanted with mouse NIH3T3 cells harboring extracellular domain deleted […] assessed as reduction in […] phosphorylation at 60 mg/kg, po administered once daily for 3 days and measured after 2 hrs post last dose by ELISA; type: functional, organism-based; conditions: time 3.0 day
[10] = biological target: Calcium/calmodulin-dependent protein kinase type IV (Homo sapiens) (UniProt Q16566); experiment: Inhibition of CAMK4 (unknown origin) at 1 uM in presence of ATP relative to control; values are per cent of control
[11] = biological target: Serine/threonine-protein kinase SIK1 (Homo sapiens) (UniProt P57059); experiment: Inhibition of SIK (unknown origin) at 1 uM in presence of ATP relative to control; values are per cent of control
[12] = Inhibition of human extracellular domain deleted TRKA V573M mutant expressed in mouse NIH3T3 cells assessed as reduction in TRKA phosphorylation incubated for 1 hrs by ELISA; type: cell-based; conditions: NIH3T3, 1 h
[13] = biological target: Serine/threonine-protein kinase PAK 5 (Homo sapiens) (UniProt Q9P286); experiment: Inhibition of PAK5 (unknown origin) at 1 uM in presence of ATP relative to control; values are per cent of control
[14] = biological target: Serine/threonine-protein kinase TAO2 (Homo sapiens) (UniProt Q9UL54); experiment: Inhibition of TAO2 (unknown origin) at 1 uM in presence of ATP relative to control; values are per cent of control
SK-BR-3 = experiment: Inhibition of cell proliferation in human SK-BR-3 cells upto 10 umol/L incubated for 72 hrs by DAPI staining based analysis; type: functional; conditions: dose <= 10.0 µmol/L
[15] = biological target: cGMP-dependent protein kinase 1 (Homo sapiens) (UniProt Q13976); experiment: Inhibition of PRKG1alpha (unknown origin) at 1 uM in presence of ATP relative to control; values are per cent of control
[16] = Oral bioavailability in monkey at 10 mg/kg administered as 20% hydroxypropyl-beta-cyclodextrin formulation by LC-MS analysis; type: ADME, organism-based, Macaca mulatta; conditions: rhesus monkey, in vivo
[17] = biological target: Dual specificity mitogen-activated protein kinase kinase 6 (Homo sapiens) (UniProt P52564); experiment: Inhibition of MKK6 (unknown origin) at 1 uM in presence of ATP relative to control; values are per cent of control
[18] = biological target: Calcium/calmodulin-dependent protein kinase type 1 (Homo sapiens) (UniProt Q14012); experiment: Inhibition of CAMK1 (unknown origin) at 1 uM in presence of ATP relative to control; values are per cent of control
Calcium/calmodulin-dependent protein kinase type 1 (Homo sapiens), sequence (Q14012 whole entry, looked up): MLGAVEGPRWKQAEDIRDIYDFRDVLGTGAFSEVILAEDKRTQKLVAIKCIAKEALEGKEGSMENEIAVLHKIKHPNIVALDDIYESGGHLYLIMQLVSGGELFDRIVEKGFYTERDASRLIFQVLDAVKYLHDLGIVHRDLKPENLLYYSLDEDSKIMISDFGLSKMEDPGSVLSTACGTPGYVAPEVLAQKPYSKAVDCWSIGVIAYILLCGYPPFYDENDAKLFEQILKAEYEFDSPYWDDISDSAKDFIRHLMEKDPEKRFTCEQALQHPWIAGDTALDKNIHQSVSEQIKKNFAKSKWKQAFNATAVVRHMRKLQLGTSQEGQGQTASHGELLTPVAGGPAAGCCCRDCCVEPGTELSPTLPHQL

BDNF/NT-3 growth factors receptor (Homo sapiens), sequence (Q16620 32-822 limits assumed): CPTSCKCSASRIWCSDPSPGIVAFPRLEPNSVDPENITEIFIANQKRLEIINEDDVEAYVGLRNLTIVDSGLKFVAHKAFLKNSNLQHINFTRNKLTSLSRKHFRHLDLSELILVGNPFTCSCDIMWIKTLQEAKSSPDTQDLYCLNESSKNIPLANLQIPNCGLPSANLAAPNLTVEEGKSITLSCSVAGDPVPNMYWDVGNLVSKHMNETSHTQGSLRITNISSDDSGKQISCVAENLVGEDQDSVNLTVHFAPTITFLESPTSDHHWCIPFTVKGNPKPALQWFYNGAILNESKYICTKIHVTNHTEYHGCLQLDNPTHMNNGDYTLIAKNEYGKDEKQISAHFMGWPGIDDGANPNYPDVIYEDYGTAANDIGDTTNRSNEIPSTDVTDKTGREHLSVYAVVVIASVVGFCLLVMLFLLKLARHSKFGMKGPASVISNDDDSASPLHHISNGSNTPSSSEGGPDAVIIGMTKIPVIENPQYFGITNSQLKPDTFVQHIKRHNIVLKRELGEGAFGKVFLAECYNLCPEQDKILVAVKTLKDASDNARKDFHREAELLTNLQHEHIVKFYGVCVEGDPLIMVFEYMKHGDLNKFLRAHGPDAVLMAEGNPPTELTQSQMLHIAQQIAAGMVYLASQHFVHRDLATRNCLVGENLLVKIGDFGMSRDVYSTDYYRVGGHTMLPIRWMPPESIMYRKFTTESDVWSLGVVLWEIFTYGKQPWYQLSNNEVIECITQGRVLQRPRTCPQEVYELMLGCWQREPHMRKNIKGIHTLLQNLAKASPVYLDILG
Dual specificity mitogen-activated protein kinase kinase 6 (Homo sapiens), sequence (P52564 whole entry): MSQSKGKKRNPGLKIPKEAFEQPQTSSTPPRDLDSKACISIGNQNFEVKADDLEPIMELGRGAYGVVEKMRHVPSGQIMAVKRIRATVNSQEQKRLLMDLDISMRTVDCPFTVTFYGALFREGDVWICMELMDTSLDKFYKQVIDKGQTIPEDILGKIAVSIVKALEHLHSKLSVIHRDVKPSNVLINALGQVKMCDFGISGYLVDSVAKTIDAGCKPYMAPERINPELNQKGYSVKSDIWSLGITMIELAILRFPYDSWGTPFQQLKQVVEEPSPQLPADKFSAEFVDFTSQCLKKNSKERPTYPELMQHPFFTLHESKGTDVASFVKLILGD
Calcium/calmodulin-dependent protein kinase type 1D (Homo sapiens), sequence (Q8IU85 whole entry, looked up): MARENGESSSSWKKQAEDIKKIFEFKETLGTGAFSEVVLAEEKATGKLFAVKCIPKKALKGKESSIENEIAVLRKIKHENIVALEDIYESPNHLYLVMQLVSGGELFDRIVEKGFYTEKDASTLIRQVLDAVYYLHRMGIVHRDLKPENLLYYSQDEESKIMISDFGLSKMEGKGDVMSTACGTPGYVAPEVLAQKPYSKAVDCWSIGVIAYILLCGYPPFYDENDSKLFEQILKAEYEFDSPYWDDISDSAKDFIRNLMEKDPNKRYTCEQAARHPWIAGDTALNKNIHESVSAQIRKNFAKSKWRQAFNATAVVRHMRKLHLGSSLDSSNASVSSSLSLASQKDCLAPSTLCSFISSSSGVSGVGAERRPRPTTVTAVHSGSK
cGMP-dependent protein kinase 1 (Homo sapiens), sequence (Q13976 whole entry): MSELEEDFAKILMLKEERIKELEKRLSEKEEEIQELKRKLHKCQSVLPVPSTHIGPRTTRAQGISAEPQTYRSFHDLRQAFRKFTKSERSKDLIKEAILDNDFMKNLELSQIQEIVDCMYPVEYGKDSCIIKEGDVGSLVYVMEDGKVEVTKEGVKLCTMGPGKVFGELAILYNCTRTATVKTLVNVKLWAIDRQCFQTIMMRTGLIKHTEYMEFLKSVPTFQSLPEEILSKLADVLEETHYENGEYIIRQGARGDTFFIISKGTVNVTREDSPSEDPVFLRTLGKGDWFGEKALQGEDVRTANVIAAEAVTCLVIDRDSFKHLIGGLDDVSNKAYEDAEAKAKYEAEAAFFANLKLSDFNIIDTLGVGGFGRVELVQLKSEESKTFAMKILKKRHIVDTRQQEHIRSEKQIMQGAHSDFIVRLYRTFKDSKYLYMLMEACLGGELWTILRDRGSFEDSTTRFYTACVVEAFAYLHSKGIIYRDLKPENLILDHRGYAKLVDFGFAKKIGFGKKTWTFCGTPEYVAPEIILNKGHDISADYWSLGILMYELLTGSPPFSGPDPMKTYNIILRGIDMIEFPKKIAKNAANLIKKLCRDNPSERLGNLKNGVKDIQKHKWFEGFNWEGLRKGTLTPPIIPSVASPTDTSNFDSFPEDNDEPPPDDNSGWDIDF
Serine/threonine-protein kinase 10 (Homo sapiens), sequence (O94804 whole entry, looked up): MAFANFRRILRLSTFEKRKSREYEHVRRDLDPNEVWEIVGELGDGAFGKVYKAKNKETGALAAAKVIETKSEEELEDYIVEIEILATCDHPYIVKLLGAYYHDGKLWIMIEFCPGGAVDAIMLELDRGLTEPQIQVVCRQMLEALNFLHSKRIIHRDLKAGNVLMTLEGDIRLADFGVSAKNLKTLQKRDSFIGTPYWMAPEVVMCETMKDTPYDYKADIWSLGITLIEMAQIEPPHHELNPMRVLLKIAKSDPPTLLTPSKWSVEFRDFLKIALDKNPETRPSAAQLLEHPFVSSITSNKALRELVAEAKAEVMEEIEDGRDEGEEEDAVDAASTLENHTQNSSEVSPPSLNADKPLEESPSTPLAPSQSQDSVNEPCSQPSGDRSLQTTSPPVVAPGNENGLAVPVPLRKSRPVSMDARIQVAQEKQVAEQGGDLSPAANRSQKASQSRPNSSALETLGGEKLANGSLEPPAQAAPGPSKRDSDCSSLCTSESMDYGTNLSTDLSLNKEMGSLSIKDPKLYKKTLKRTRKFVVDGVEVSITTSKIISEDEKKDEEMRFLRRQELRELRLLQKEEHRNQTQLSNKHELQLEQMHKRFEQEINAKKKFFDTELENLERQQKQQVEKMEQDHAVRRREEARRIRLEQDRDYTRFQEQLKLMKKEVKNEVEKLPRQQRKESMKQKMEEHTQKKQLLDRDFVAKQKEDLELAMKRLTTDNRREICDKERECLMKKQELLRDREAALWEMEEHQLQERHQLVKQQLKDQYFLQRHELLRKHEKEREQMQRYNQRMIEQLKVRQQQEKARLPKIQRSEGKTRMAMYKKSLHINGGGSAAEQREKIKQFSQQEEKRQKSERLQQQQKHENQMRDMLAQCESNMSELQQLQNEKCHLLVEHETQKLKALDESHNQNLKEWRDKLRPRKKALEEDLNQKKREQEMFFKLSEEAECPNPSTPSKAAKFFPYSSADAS
Misshapen-like kinase 1 (Homo sapiens), sequence (Q8N4C8 whole entry, looked up): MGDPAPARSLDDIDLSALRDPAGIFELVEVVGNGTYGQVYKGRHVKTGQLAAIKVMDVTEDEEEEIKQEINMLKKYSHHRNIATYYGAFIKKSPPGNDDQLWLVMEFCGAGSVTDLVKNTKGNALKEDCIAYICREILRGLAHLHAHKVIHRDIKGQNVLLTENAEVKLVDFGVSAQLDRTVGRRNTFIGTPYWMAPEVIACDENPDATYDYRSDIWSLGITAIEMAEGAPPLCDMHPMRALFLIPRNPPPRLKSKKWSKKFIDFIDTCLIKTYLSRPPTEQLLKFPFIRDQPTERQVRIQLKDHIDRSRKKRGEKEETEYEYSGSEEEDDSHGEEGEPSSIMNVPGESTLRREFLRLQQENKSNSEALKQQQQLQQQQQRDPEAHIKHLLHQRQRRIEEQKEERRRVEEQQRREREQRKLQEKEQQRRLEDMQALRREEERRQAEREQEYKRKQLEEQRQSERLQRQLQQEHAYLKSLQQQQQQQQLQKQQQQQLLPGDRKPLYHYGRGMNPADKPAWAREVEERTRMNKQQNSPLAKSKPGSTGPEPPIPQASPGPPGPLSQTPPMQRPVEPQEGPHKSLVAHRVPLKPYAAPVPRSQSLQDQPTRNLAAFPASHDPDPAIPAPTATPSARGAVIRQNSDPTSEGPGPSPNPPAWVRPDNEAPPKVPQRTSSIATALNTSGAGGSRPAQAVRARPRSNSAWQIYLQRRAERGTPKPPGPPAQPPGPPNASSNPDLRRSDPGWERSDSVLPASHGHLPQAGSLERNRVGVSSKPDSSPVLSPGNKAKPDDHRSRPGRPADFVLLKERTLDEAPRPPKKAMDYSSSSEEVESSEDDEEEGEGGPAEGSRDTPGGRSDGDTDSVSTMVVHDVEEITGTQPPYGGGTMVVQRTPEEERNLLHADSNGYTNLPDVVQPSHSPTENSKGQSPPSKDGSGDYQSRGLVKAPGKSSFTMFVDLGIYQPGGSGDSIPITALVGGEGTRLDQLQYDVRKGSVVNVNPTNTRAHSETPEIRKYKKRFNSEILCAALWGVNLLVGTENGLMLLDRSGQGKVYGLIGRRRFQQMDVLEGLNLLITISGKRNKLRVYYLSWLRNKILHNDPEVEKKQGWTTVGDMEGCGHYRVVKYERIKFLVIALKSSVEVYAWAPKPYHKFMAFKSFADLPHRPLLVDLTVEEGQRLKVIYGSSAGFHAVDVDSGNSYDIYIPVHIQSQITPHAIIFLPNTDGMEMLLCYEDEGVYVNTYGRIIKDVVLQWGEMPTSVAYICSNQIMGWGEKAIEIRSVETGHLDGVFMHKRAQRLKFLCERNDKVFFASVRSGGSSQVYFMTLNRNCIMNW
FKBP12A/mTOR (Homo sapiens), sequence (P62942 2-108 limits assumed, other chains not shown): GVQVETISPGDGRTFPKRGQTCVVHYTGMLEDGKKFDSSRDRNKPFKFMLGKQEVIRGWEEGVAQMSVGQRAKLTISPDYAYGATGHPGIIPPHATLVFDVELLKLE

## C[C@@H]1CCc2ncc(F)cc2[C@H]2CCCN2c2ccn3ncc(c3n2)C(=O)N1 [SELITRECTINIB]
[1]
  residual activity: 82%
BHT-101
  inhibition: inactive
SNB-19
  inhibition: inactive
[2]
  residual activity: 99.5%
SCC-25
  inhibition: inactive
Homo sapiens
  residual activity: 112%
NCI-H661
  inhibition: inactive
CAMA-1
  inhibition: inactive
[3]
  residual activity: 103%
[4]
  residual activity: 80.5%
5637
  inhibition: inactive
[5]
  residual activity: 0%
[6]
  residual activity: 108%
KM12
  Activity: Active
T-24
  inhibition: inactive
[7]
  residual activity: 116%
[8]
  residual activity: 99.5%
[9]
  residual activity: 102%
NIH3T3
  inhibition: Active
[10]
  residual activity: 118%
[11]
  residual activity: 107%
[12]
  IC50: 29 nM
[13]
  residual activity: 104%
[14]
  residual activity: 104%
SK-BR-3
  inhibition: inactive
[15]
  residual activity: 110%
[16]
  bioavailability: 2%
[17]
  residual activity: 100%
[18]
  residual activity: 107%
